Columns and labels:
[1] = Absorption profile and fluorescence intensity of the free dyes; assay type: physicochemical; conditions: dyes compared with each other (FIG. 1, 25, 52)
[2] = Quantum yield (QY) measurement, Hamamatsu C9920 PL Absolute Quantum Yield Measurement System; assay type: physicochemical; conditions: in PBS
Description: The quantum yield (QY) was determined at an excitation wavelength of 500 nm and 530 nm for inventive and commercial compounds, as shown below
QY measurements were performed in PBS using a Hamamatsu C9920 PL Absolute Quantum Yield Measurement System. The maximum absorbance at a 1 cm pathlength was set to 0.08. The lower values for the excitation at 530 nm was due to the rising emission which was not included in the counting because it was too close to the excitation light.
The quantum yield (QY) was determined at an excitation wavelength of 600 nm for inventive and commercial compounds, as shown below
QY measurements were performed in PBS using a Hamamatsu C9920 PL Absolute Quantum Yield Measurement System. The maximum absorbance at a 1 cm pathlength was set to 0.08.
The quantum yield (QY) was determined at an excitation wavelength of 710 nm for inventive and commercial compounds, as shown below.
QY measurements were performed in PBS using a Hamamatsu C9920 PL Absolute Quantum Yield Measurement System. The maximum absorbance at a 1 cm path length was set to 0.08.

[3] = Storage stability at 50° C. under argon; assay type: physicochemical
Description: The inventive compounds were evaluated for stability. All compounds were packed under argon in plastic vials. The vials sere sealed with a drying pad in an aluminium coated pouch, and then stored at 50° C. for seven days. The results of the stability study for selected compounds are shown below:
Purity was determined based on ester activity.
The inventive compounds were evaluated for stability compared to commercial dyes. All compounds were packed under argon as 1 mg portions in plastic vials. The vials sere sealed with a drying pad in an aluminium coated pouch, and then stored at 50° C. for 14 days. The results of the stability study for selected compounds are shown below:
The inventive compound 755 Compound 1 (isomer 1)-NHS was evaluated for stability. The compound was packed under argon in plastic vials. The vials sere sealed with a drying pad in an aluminium coated pouch, and then stored at 50° C. for 14 days. Purity was determined by HPLC before and after storage.

[4] = Spectral properties of the dyes compared with commercially available dyes; assay type: physicochemical; conditions: reactive ester form of the dye
[5] = test system: mouse IgG, rabbit IgG, biotinylated bovine serum albumin (BBSA); experiment: Functional assay, summary over GAM, GAR and SA conjugates; assay type: binding; conditions: compared with DyLight 549 or DyLight 649 conjugates
Description: Performance of the dye-GAM conjugates, dye-GAR conjugates, and dye-SA conjugates was evaluated in a functional assay. Wells of a 96 white opaque plate were coated with target proteins mouse IgG immunoglobulin, rabbit IgG immunoglobulin, or biotinylated bovine serum albumin (BBSA). One hundred μl mouse or rabbit IgG or BBSA at a concentration of 10 μg/ml was applied to the corresponding wells in columns 1 and 2. The target proteins were serially diluted 1:1 from the wells in columns 2 to 11 using 100 μl PBS. One hundred 100 μl of the samples from the wells in column 11 were discarded. One hundred μl PBS was added to the wells in column 12. The plates were incubated overnight at 4° C. and then blocked 2×200 μl with Thermo Scientific SuperBlock® Blocking Buffer. The coated plates were washed 2×200 μl with PBS-Tween and 1×200 μl with PBS. Conjugates diluted in PBS to 4 μg/ml were added to the corresponding plates (100 μl/well) and then incubated for 1 h in the dark. The plates were washed with 2×200 μl with PBS-Tween and 1×200 μl with PBS and filled with PBS buffer (100 μl/well) prior to scanning on Tecan Safire using 562 nmexcitation/576 nmemission to detect fluorescence intensity.
Performance of the dye-GAM conjugates and dye-GAR conjugates was evaluated in a functional assay. Wells of a 96 well white opaque plate were coated with mouse IgG, or rabbit IgG. One hundred μl mouse or rabbit IgG at a concentration of 10 μg/ml was applied to the corresponding wells in columns 1 and 2. The IgG proteins were serially diluted 1:1 from the wells in columns 2 to 11 using 100 μl PBS. One hundred 100 μl of the samples from the wells in column 11 were discarded. One hundred μl PBS was added to the wells in column 12. […] The plates were washed with 2×200 μl with PBS-Tween and 1×200 μl with PBS and filled with PBS buffer (100 μl/well) prior to scanning on Tecan Safire using the Alexa 647 setting (650 nmexcitation/665 nmemission) and the DyLight 649 setting (654 nmexcitation/673 nmemission to detect fluorescence intensity

U2OS cells; A550 cells = experiment: Immunofluorescence cell based assays, summary statements; set-up: species or system human; conditions: GAM and GAR conjugates
Description: The inventive compounds and commercial dye were evaluated for immunofluorescence in cell based assays using the following protocol. Plates containing U2OS cells (human osteosarcoma cell line) were fixed in 4% paraformaldehyde in PBS/0.1% Triton X-100 for 15 min at room temperature. The cells were then permeabilized with 2% BSA in PBS/0.1% Triton X-100 for 30 min at room temperature. Diluted primary antibodies in PBS/0.1% Triton X-100 were added to the plates and incubated overnight at 4° C. The plates were washed 3×100 μl with PBS. Based on the calculated protein concentrations, the conjugates were diluted to 4 μg/ml (1:250 from 1 mg/ml stock) in PBS/0.1% Triton X-100 and added to the plates (50 μl/well) and incubated 1 h in the dark at room temperature. The plates were washed 3×100 μl with PBS. One hundred μl of 2 μg/ml Hoechst dye in PBS was added per well. The plates were then scanned on an ArrayScan® Plate Reader for imaging and quantitation.
The inventive compounds and commercial dyes were evaluated for immunofluorescence in cell based assays using the following protocol. Plates containing A550 cells (adenocarcinoma human alveolar basal epithelial cells, P5, Sep. 23, 2010) and stored at −80° C. were placed at 50° C. for 30 min. The storage buffer (PBS) was removed and then the cells were permeabilized for 15 min (100 μl/well) with 0.1% Triton-X100 in 1×PBS buffer. The plates were blocked for 30 min in 2% BSA in 1×PBS-0.1% Triton-X100 and then incubated with primary antibodies diluted in 2% BSA in 1×PBS, 0.1% Trion-X100, overnight at 4° C. […] The remaining wells were incubated in blocking buffer only (no primary antibody). After overnight incubation, the antibody solution was removed from the wells, and the plates were washed with PBS-Tween (2×100 μl/well). The labeled secondary antibody conjugates, diluted to 4 μg/ml in PBS were added to corresponding wells and incubated for 1 h at room temperature (about 20° C. to about 22° C.). The plates were washed 3×100 μl/well with PBS and Hoechst stain diluted 1 μg/ml in PBS were added to each well (100 μl/well) of each plate. The plates were then scanned on the Thermo Scientific ArrayScan® HCS Reader for imaging and quantitation.

[6] = listed as 550 Compound 1(isomer 1)-NHS
[7] = unit size 15 μg, 50° C. for seven days, purity based on ester activity, listed as 550 Compound 1(isomer 1)-NHS
[8] = unit size 50 μg, 50° C. for seven days, purity based on ester activity, listed as 550 Compound 1(isomer 1)-NHS
[9] = unit size 1 mg, 50° C. for seven days, purity based on ester activity
[10] = unit size 15 μg, 50° C. for seven days, purity based on ester activity, listed as 550 Compound 1(isomer 2)-NHS
[11] = unit size 50 μg, 50° C. for seven days, purity based on ester activity, listed as 550 Compound 1(isomer 2)-NHS
[12] = unit size 15 μg, 50° C. for 14 days, purity by HPLC
[13] = unit size 50 μg, 50° C. for 14 days, purity by HPLC
[14] = unit size 60 μg, 50° C. for 14 days, purity by HPLC
[15] = unit size 1 mg, 50° C. for 14 days, purity by HPLC

COCCN1/C(=C/C=C/C2=[N+](CCCCCC(=O)ON3C(=O)CCC3=O)c3ccc(S(=O)(=O)[O-])cc3C2(C)CCCS(=O)(=O)O)C(C)(CCCS(=O)(=O)O)c2cc(S(=O)(=O)O)ccc21 (single isomer, unassigned) [550 Compound 1 (isomer 1)-NHS]
Absorption profile [1]: very similar profiles
QY excitation at 500 nm [2, 6]: 0.105
QY excitation at 530 nm [2, 6]: 0.098
Purity at day 1 [3, 7]: 95%
Purity at day 7 [3, 7]: 91%
Purity at day 1 [3, 8]: 95%
Purity at day 7 [3, 8]: 91%
Purity at day 1 [3, 9]: 96%
Purity at day 7 [3, 9]: 93%

COCCN1/C(=C/C=C/C2=[N+](CCCCCC(=O)ON3C(=O)CCC3=O)c3ccc(S(=O)(=O)[O-])cc3C2(C)CCCS(=O)(=O)O)C(C)(CCCS(=O)(=O)O)c2cc(S(=O)(=O)O)ccc21 (single isomer, unassigned) [550 Compound 1 (isomer 2)-NHS]
Absorption profile [1]: very similar profiles
QY excitation at 500 nm [2]: 0.096
QY excitation at 530 nm [2]: 0.090
Purity at day 1 [3, 10]: 96%
Purity at day 7 [3, 10]: 94%
Purity at day 1 [3, 11]: 96%
Purity at day 7 [3, 11]: 95%

COCCN1/C(=C/C=C/C=C/C=C/C2=[N+](CCCCCC(=O)ON3C(=O)CCC3=O)c3ccc(S(=O)(=O)[O-])cc3C2(C)CCCS(=O)(=O)O)C(C)(CCCS(=O)(=O)O)c2cc(S(=O)(=O)O)ccc21 (single isomer, unassigned) [755 Compound 1 (isomer 1)-NHS]
Absorption profile [1]: very similar profiles
Emission (Em) [4]: 776 nm
Excitation (Ex) [4]: 754 nm
ε [4]: 220,000 M−1cm−1
QY with excitation at 710 nm [2]: 0.119
Purity at day 1 [3, 12]: 99%
Purity at day 14 [3, 12]: 96%
Purity at day 1 [3, 13]: 99%
Purity at day 14 [3, 13]: 97%
Purity at day 1 [3, 14]: 99%
Purity at day 14 [3, 14]: 97%
Purity at day 1 [3, 15]: 99%
Purity at day 14 [3, 15]: 98%

COCCN1/C(=C/C=C/C=C/C=C/C2=[N+](CCCCCC(=O)ON3C(=O)CCC3=O)c3ccc(S(=O)(=O)[O-])cc3C2(C)CCCS(=O)(=O)O)C(C)(CCCS(=O)(=O)O)c2cc(S(=O)(=O)O)ccc21 (single isomer, unassigned) [755 Compound 1 (isomer 2)-NHS]
Absorption profile [1]: very similar profiles
Emission (Em) [4]: 776 nm
Excitation (Ex) [4]: 754 nm
ε [4]: 220,000 M−1cm−1
QY with excitation at 710 nm [2]: 0.110

COCC[N+]1=C(/C=C/C=C/C=C2/N(CCCCCC(=O)O)c3ccc(S(=O)(=O)O)cc3C2(C)CCCS(=O)(=O)O)C(C)(CCCS(=O)(=O)O)c2cc(S(=O)(=O)O)ccc21.[Na+].[Na+].[Na+] (centres unmarked) [650 Compound 1, 2-{(1E,3E)-5-[1-(5-Carboxypentyl)-3-methyl-5-sulfo-3-(3-sulfopropyl)-1,3-dihydro-indol-(2E)-ylidene]-penta-1,3-dienyl}-1-(2-methoxy-ethyl)-3-methyl-5-sulfo-3-(3-sulfopropyl)-3H-indolium tri sodium salt]
Performance of conjugates (GAM, GAR, SA) in the functional assay in terms of signal-to-noise [5]: superior to DyLight 649 conjugates
Immunofluorescence performance of conjugates compared with commercial DyLight dye (U2OS cells; A550 cells; tri sodium salt): at least similar performance to DyLight 649 conjugates (GAM, GAR), and in some cases superior performance

COCCOCC[N+]1=C(/C=C/C=C/C=C2/N(CCCCCC(=O)O)c3ccc(S(=O)(=O)O)cc3C2(C)CCCS(=O)(=O)O)C(C)(CCCS(=O)(=O)O)c2cc(S(=O)(=O)O)ccc21.[Na+].[Na+].[Na+] (centres unmarked) [650 Compound 2, 2-{(1E,3E)-5-[1-(5-carboxypentyl)-3-methyl-5-sulfo-3-(3-sulfopropyl)-1,3-dihydroindol-(2E)-ylidene]-penta-1,3-dienyl}-1-[2-(2-methoxy-ethoxy)-ethyl]-3-methyl-5-sulfo-3-(3-sulfopropyl)-3H-indolium tri sodium salt]
Performance of conjugates (GAM, GAR, SA) in the functional assay in terms of signal-to-noise [5]: superior to DyLight 649 conjugates
Immunofluorescence performance of conjugates compared with commercial DyLight dye (U2OS cells; A550 cells): at least similar performance to DyLight 649 conjugates (GAM, GAR), and in some cases superior performance
